Experimental data from patent publication US4833136A, “Pharmaceutically useful pyrazolo[4,3-b]pyridines” (Beecham Group p.l.c., priority 1986, dated 1989).

What was measured:
[1] = test system: cantharidin mouse ear; assay: Mouse cantharidin screen: topical anti-inflammatory activity, cantharidin mouse ear; assay type: in vivo; settings: cantharidin 25 μg/ear, ears weighed after 24 hours
Protocol: Compounds were tested for topical anti-inflammatory activity in a cantharidin mouse ear screen, modified from Swingle, Reiter and Schwartzmiller [Arch. int. Pharmacodyn. 254, 168-176, 1976].
25 μg cantharidin (in 10 μl THF) was applied to both ears. Compound, in the same solvent, was applied at the same time, to the left ear only. Ears were weighed after 24 hours. Percentage inhibition of the acute inflammatory swelling refers to the increase in weight of left ears (cantharidin plus compound) compared to solvent-treated negative controls, as a proportion of the increase in weight of right ears (cantharidin alone) over similar controls.

[2] = test system: mouse sensitized to oxazolone; assay: Mouse oxazolone screen: topical anti-inflammatory activity in the mouse sensitized to oxazolone; assay type: in vivo; settings: oxazolone challenge 100 μg/ear, ears weighed 24 hours later
Protocol: Compounds were tested for topical anti-inflammatory activity in a screen using the mouse sensitized to oxazolone, by a method modified from that of Dietrich and Hess [Int. Arch. Allergy, 38, 246 (1970)].
Mice were sensitized with oxazolone (2 mg in 20 μl EtOH) on a shaved area of the abdomen. 5 days later, the animals received 10 μl THF/MeOH (1:1 v/v) on the right ear and the test compound in the same solvent on the left ear. 1 hour later, the animals were challenged with 100 μg oxazolone in 10 μl acetone on each ear. Ear weights were measured 24 hours later. Percentage inhibition of the inflammatory swelling refers to the increase in weight of left ears (oxazolone plus compound in THF/MeOH) compared to untreated negative controls, as a proportion of the increase in weight of right ears (oxazolone plus THF/MeOH) only similar controls.

[3] = dose 200 μg/ear 1 hour before challenge

SMILES | % Inhibition of the acute inflammatory swelling ([1]; dose 500 μg/ear) [%] | % Inhibition of the inflammatory swelling [2, 3] [%] | % Inhibition of the acute inflammatory swelling ([1]; dose 200 μg/ear) [%] | further results
C=CCNc1cc(C)nc2c(-c3ccccc3)n[nH]c12 [Compound 5, 7-Allylamino-5-methyl-3-phenyl-1H-pyrazolo[4,3-b]pyridine] | 90 | – | – | –
Cc1cc(NCCO)c2[nH]nc(C)c2n1 [Compound 2, 7-(2-Hydroxyethylamino)-3,5-dimethyl-1H-pyrazolo[4,3-b]pyridine] | 86 | 52 | – | –
C=CCNc1cc(C)nc2c(C)n[nH]c12 [Compound 4, 7-Allylamino-3,5-dimethyl-1H-pyrazolo[4,3-b]pyridine] | – | – | 83 | –
Cc1cc(NCC(C)C)c2[nH]nc(-c3ccccc3)c2n1 [Compound 7, 7-Isobutylamino-5-methyl-3-phenyl-1H-pyrazolo[4,3-b]pyridine] | 39 | – | – | –
Cc1cc(NCCO)c2[nH]nc(-c3ccc(Cl)cc3)c2n1 [Compound 6, 3-(4-Chlorophenyl)-7-(2-hydroxyethylamino)-5-methyl-1H-pyrazolo[4,3-b]pyridine] | – | 31 | 68 | –
Cc1cc(NCCO)c2[nH]nc(-c3ccccc3)c2n1 [Compound 3, 7-(2-Hydroxyethylamino)-5-methyl-3-phenyl-1H-pyrazolo[4,3-b]pyridine] | 98 | – | – | % Inhibition of the inflammatory swelling ([2]; dose 500 μg/ear 1 hour before challenge): 52%
Cc1cc(NCCO)c2[nH]nc(Br)c2n1 [Compound 1, 3-Bromo-7-(2-hydroxyethylamino)-5-methyl-1H-pyrazolo-[4,3-b]pyridine] | – | 22 | – | –
Cc1cc(NCCO)c2nn(-c3ccccc3)c(C)c2n1 [Compound 13, 7-(2-Hydroxyethylamino)-3,5-dimethyl-2-phenylpyrazolo[4,3-b]pyridine] | – | – | 43 | –
